Assay results reported in patent US20230053540A1, “TREATMENT OF LIVER INJURY” (Massachusetts Institute of Technology, priority 2019, published 2023).

System: hepatocytes
Assay: Seq-Well scRNA-Seq of hepatocytes after APAP overdose (signature scores, DEG vs untreated)
Format: in vivo, mouse
[1] = time point A6 vs untreated (UT)

Compound: CC(=O)Nc1ccc(O)cc1 [APAP, acetaminophen]
- avg_logFC Tmem150a [1]: −0.2535
- avg_logFC Tmem160 [1]: −0.339
- avg_logFC Tmem242 [1]: −0.2725
- avg_logFC Tmem243 [1]: −0.3791
- avg_logFC Tmem258 [1]: −0.2769
- avg_logFC Tnks2 [1]: 0.3176
- avg_logFC Tob1 [1]: −0.3387
- avg_logFC Tpr [1]: 0.4409
- avg_logFC Tsc22d1 [1]: −0.2997
- avg_logFC Tspo [1]: −0.3157
- avg_logFC Txn1 [1]: −0.3091
- avg_logFC Ubl5 [1]: −0.3033
- avg_logFC Ucp2 [1]: 0.2612
- avg_logFC Ugt2a3 [1]: −0.3075
- avg_logFC Uqcc2 [1]: −0.3269
- avg_logFC Wdr43 [1]: 0.3438
- avg_logFC Yap1 [1]: 0.3281
- avg_logFC Zfp683 [1]: −0.4217
- avg_logFC Zyx [1]: 0.2983
- avg_logFC mmu-mir-6236 [1]: 0.5206
- Adck3 pct.1 (time point A24): 0.68
- Arhgap5 pct.1 (time point A24): 0.566
- Arhgef12 pct.1 (time point A24): 0.541
- Arl5a pct.1 (time point A24): 0.459
- Atp1a1 pct.1 (time point A24): 0.532
- Atp5e pct.1 (time point A24): 0.688
- Atp5f1 pct.1 (time point A24): 0.8
- Atp6v1f pct.1 (time point A24): 0.244
- Atp11c pct.1 (time point A24): 0.649
- Atp13a3 pct.1 (time point A24): 0.546
- Azin1 pct.1 (time point A24): 0.46
- Bnip3 pct.1 (time point A24): 0.39
- Brd2 pct.1 (time point A24): 0.512
- Bzw1 pct.1 (time point A24): 0.487
- Cald1 pct.1 (time point A24): 0.79
- Caprin1 pct.1 (time point A24): 0.567
- Ces3b pct.1 (time point A24): 0.683
- Copb2 pct.1 (time point A24): 0.595
- Copz1 pct.1 (time point A24): 0.501
- Cox7b pct.1 (time point A24): 0.768
- Cpne3 pct.1 (time point A24): 0.456
- Ctnnb1 pct.1 (time point A24): 0.566
- Cyp4a14 pct.1 (time point A24): 0.245
- Cyp27a1 pct.1 (time point A24): 0.759
- Ddost pct.1 (time point A24): 0.493
- Dennd5b pct.1 (time point A24): 0.476
- Deptor pct.1 (time point A24): 0.583
- Dnajb9 pct.1 (time point A24): 0.373
- Dnajb11 pct.1 (time point A24): 0.557
- Eci1 pct.1 (time point A24): 0.581
- Edem1 pct.1 (time point A24): 0.566
- Ehhadh pct.1 (time point A24): 0.552
- Eif4b pct.1 (time point A24): 0.542
- Ell2 pct.1 (time point A24): 0.552
- Eprs pct.1 (time point A24): 0.587
- Erbb2ip pct.1 (time point A24): 0.482
- Erp44 pct.1 (time point A24): 0.469
- Esd pct.1 (time point A24): 0.67
- Fam120a pct.1 (time point A24): 0.51
- Fasn pct.1 (time point A24): 0.449
- Fcgrt pct.1 (time point A24): 0.461
- Gch1 pct.1 (time point A24): 0.502
- Gm23935 pct.1 (time point A24): 0.919
- Gm24245 pct.1 (time point A24): 0.369
- Gpam pct.1 (time point A24): 0.329
- Grlf1 pct.1 (time point A24): 0.413
- Gstm3 pct.1 (time point A24): 0.293
- H6pd pct.1 (time point A24): 0.675
- Id3 pct.1 (time point A24): 0.278
- Ide pct.1 (time point A24): 0.604
- Iqgap2 pct.1 (time point A24): 0.748
- Ireb2 pct.1 (time point A24): 0.469
- Jak1 pct.1 (time point A24): 0.482
- Lasp1 pct.1 (time point A24): 0.361
- Lgr4 pct.1 (time point A24): 0.399
- Lpin2 pct.1 (time point A24): 0.7
- Macf1 pct.1 (time point A24): 0.349
- Magt1 pct.1 (time point A24): 0.52
- Man2a1 pct.1 (time point A24): 0.675
- Mbnl1 pct.1 (time point A24): 0.428
- Met pct.1 (time point A24): 0.434
- Mt1 pct.1 (time point A24): 0.41
- Mtss1 pct.1 (time point A24): 0.581
- Nadk2 pct.1 (time point A24): 0.539
- Narf pct.1 (time point A24): 0.411
- Ndufa6 pct.1 (time point A24): 0.692
- Ndufb6 pct.1 (time point A24): 0.636
- Ndufc2 pct.1 (time point A24): 0.465
- Nop10 pct.1 (time point A24): 0.227
- Nr1i3 pct.1 (time point A24): 0.237
- Nrp1 pct.1 (time point A24): 0.426
- Osbp19 pct.1 (time point A24): 0.569
- Osbpl1a pct.1 (time point A24): 0.592
- Ostc pct.1 (time point A24): 0.514
- Pik3c2a pct.1 (time point A24): 0.36
- Plin5 pct.1 (time point A24): 0.181
- Prdx4 pct.1 (time point A24): 0.47
- Prdx5 pct.1 (time point A24): 0.731
- Prkaa2 pct.1 (time point A24): 0.451
- Prox1 pct.1 (time point A24): 0.477
- Proz pct.1 (time point A24): 0.622
